Reference: paper PMC7180948, “New Insights into 4-Anilinoquinazolines as Inhibitors of Cardiac Troponin I–Interacting Kinase (TNNi3K)” (Molecules, 2020)

Assays:
Assay in all cases: biochemical
Design in all cases: KINOMEscan competition binding panel (Eurofins DiscoverX), single concentration, % inhibition
Conditions in all cases: read-out: 7 at 1 µM % inhibition
MARK1 = MARK1 (Homo sapiens, UniProt Q9P0L2)
Method in brief: (§1)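 Binding was profiled in the KINOMEscan panel of over 400 human kinases, with each compound tested at a single concentration of 1 µM to map selectivity.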

PAK7 = target: T1, PAK7 (Homo sapiens, UniProt Q9P286)
T1 construct: gene PAK5
Method in brief: as §1

CDK4 = CDK4 (Homo sapiens, UniProt P11802)
Method in brief: as §1

BRSK2 = BRSK2 (Homo sapiens, UniProt Q8IWQ3)
Method in brief: as §1

RET(M918T) = RET(M918T) (Homo sapiens, UniProt P07949, M918T)
Method in brief: as §1

AMPK-alpha2 = target: T2, AMPK-alpha2 (Homo sapiens, UniProt P54646)
T2 construct: gene PRKAA2
Method in brief: as §1

[1] = target: T3, TYK2(JH1domain-catalytic) (Homo sapiens, UniProt P29597)
T3 construct: JH1domain-catalytic
Method in brief: as §1

ADCK3 = target: T4, ADCK3 (Homo sapiens, UniProt Q8NI60)
T4 construct: gene COQ8A
Method in brief: as §1

MEK4 = target: T5, MEK4 (Homo sapiens, UniProt P45985)
T5 construct: gene MAP2K4
Method in brief: as §1

MELK = MELK (Homo sapiens, UniProt Q14680)
Method in brief: as §1

[2] = target: T6, RPS6KA5(Kin.Dom.2-C-terminal) (Homo sapiens, UniProt O75582)
T6 construct: Kin.Dom.2-C-terminal
Method in brief: as §1

TSSK3 = TSSK3 (Homo sapiens, UniProt Q96PN8)
Method in brief: as §1

EPHA6 = EPHA6 (Homo sapiens, UniProt Q9UF33)
Method in brief: as §1

RET = RET (Homo sapiens, UniProt P07949)
Method in brief: as §1

PCTK2 = target: T7, PCTK2 (Homo sapiens, UniProt Q00537)
T7 construct: gene CDK17
Method in brief: as §1

CDK3 = CDK3 (Homo sapiens, UniProt Q00526)
Method in brief: as §1

AKT3 = AKT3 (Homo sapiens, UniProt Q9Y243)
Method in brief: as §1

SGK2 = SGK2 (Homo sapiens, UniProt Q9HBY8)
Method in brief: as §1

PIK3CA(H1047Y) = PIK3CA(H1047Y) (Homo sapiens, UniProt P42336, H1047Y)
Method in brief: as §1

CLK4 = CLK4 (Homo sapiens, UniProt Q9HAZ1)
Method in brief: as §1

MYO3B = MYO3B (Homo sapiens, UniProt Q8WXR4)
Method in brief: as §1

LYN = LYN (Homo sapiens, UniProt P07948)
Method in brief: as §1

BUB1 = BUB1 (Homo sapiens, UniProt O43683)
Method in brief: as §1

MAP3K15 = MAP3K15 (Homo sapiens, UniProt Q6ZN16)
Method in brief: as §1

Sequence of MYO3B (Q8WXR4 whole entry): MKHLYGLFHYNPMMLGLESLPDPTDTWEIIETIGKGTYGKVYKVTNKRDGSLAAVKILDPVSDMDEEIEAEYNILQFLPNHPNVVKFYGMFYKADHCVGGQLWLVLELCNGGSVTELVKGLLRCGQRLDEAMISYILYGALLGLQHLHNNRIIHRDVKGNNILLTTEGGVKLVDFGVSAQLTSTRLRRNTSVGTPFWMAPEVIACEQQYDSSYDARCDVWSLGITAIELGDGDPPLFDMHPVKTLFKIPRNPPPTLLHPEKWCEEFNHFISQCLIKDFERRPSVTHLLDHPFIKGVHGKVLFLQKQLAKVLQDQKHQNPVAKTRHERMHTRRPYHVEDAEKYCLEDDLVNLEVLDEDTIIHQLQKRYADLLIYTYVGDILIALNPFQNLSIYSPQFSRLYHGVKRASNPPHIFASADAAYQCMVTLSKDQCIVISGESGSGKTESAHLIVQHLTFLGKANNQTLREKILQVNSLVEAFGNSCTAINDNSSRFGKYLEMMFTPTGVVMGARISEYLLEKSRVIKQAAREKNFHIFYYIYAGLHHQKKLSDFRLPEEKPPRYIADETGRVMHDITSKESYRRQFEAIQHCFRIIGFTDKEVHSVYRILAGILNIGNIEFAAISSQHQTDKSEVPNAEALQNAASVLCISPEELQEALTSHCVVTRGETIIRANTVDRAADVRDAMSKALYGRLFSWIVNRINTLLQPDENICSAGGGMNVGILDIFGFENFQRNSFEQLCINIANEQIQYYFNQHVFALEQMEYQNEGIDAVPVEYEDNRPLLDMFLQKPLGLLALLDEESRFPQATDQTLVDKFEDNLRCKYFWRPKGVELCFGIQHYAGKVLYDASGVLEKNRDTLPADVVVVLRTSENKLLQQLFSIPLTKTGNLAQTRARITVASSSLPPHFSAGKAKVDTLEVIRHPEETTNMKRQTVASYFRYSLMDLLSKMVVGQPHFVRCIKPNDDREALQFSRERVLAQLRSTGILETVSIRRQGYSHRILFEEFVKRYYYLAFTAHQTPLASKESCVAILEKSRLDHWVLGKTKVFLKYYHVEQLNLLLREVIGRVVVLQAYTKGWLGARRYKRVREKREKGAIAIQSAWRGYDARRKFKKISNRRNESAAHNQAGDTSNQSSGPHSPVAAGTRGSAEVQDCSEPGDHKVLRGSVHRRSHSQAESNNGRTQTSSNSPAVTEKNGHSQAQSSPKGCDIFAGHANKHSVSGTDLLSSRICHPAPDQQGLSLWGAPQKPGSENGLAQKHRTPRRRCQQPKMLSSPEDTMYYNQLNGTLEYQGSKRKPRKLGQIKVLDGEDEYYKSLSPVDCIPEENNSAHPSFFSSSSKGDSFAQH
T3 sequence (P29597 whole entry): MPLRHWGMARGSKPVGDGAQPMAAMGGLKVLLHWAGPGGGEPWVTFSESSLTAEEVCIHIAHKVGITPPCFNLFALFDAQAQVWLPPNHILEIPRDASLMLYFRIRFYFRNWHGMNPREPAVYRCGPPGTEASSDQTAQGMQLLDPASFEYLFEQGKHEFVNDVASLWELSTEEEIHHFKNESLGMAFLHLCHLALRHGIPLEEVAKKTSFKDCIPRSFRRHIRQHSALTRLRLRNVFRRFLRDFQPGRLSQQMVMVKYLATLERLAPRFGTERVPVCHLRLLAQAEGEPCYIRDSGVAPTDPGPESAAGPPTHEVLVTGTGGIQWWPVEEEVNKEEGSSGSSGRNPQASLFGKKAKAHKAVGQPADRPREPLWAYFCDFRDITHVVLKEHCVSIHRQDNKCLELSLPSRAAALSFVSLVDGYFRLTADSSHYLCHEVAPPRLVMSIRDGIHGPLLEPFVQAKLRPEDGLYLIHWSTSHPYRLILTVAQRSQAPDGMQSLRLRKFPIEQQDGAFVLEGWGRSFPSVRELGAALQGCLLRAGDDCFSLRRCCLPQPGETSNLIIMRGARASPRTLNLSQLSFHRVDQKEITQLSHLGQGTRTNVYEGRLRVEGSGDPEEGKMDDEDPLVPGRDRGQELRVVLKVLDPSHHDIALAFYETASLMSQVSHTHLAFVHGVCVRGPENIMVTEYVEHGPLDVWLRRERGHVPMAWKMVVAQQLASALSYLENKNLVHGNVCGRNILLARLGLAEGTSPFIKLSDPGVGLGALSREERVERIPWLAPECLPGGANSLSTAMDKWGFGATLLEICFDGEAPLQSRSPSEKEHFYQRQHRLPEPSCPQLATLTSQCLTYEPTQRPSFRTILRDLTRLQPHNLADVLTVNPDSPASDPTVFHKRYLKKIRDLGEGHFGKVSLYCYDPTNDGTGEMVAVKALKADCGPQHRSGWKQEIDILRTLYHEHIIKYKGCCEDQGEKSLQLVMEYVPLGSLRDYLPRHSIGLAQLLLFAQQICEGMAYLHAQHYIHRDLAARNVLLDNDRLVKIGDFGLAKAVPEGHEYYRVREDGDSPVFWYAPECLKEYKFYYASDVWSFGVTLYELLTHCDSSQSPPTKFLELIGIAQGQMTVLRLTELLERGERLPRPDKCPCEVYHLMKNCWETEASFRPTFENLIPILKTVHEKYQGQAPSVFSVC
T1 sequence (Q9P286 whole entry): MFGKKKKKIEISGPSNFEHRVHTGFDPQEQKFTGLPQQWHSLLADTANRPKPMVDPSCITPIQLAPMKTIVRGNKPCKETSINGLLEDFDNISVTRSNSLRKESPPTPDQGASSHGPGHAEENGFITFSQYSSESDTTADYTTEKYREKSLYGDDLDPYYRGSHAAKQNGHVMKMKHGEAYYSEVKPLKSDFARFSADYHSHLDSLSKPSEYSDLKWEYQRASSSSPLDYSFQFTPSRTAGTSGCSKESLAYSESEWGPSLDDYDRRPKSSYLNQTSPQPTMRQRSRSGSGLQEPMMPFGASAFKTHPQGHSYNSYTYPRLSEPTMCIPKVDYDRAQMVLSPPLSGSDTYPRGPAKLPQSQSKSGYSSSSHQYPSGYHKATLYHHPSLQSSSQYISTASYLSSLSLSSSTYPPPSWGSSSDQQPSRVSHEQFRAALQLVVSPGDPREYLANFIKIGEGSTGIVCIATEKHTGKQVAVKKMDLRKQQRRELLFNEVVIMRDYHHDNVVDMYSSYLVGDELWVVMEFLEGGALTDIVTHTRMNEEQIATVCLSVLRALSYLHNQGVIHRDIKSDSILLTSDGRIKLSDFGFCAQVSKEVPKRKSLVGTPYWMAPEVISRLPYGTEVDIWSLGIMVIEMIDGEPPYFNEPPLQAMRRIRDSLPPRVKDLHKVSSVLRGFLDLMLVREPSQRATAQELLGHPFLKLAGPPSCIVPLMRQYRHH
Sequence of TSSK3 (Q96PN8 whole entry): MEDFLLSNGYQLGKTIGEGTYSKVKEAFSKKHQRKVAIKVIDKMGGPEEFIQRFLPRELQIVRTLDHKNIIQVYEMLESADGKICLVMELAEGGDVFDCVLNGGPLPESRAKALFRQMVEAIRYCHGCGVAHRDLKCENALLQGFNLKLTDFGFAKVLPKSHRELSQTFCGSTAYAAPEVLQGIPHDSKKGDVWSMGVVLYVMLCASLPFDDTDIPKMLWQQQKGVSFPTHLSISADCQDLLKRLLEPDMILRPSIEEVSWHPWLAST
T6 sequence (O75582 whole entry): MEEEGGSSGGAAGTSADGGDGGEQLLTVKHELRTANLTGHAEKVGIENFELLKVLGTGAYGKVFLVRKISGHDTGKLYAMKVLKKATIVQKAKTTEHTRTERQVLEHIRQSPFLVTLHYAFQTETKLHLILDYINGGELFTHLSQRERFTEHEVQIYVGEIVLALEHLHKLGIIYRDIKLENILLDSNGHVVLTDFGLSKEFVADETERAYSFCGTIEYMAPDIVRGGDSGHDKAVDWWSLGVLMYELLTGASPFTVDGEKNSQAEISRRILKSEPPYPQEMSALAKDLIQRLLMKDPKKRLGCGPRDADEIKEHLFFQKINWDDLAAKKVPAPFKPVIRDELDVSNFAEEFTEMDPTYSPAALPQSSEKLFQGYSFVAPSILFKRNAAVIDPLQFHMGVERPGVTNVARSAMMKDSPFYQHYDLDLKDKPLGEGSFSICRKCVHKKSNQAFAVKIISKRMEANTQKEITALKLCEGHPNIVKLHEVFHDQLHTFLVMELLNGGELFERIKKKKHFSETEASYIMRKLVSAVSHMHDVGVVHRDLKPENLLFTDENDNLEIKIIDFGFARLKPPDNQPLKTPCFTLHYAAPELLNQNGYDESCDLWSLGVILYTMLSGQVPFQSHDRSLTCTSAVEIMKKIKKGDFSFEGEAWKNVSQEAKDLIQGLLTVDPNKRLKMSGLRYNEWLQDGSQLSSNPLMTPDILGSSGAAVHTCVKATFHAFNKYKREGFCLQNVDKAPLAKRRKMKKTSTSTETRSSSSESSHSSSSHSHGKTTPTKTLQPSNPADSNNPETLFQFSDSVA
Sequence of CLK4 (Q9HAZ1 whole entry): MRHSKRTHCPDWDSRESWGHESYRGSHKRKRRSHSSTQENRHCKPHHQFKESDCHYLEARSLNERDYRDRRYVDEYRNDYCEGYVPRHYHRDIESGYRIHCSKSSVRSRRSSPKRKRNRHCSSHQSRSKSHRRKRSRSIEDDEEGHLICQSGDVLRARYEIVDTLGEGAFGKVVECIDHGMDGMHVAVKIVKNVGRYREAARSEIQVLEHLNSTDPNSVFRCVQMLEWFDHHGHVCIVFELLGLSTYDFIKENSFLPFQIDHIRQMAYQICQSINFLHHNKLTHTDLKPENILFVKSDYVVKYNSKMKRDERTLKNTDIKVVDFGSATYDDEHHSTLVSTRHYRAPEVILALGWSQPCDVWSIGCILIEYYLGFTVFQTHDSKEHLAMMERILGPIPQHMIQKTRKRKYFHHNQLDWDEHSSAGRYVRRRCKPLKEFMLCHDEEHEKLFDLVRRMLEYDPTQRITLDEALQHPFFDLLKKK

Q: What does the source list for `CNS(=O)(=O)c1ccc(N(C)C)c(Nc2ncnc3cc(OC)c(OC)cc23)c1` [compound 7, 3-((6,7-dimethoxyquinazolin-4-yl)amino)-4-(dimethylamino)-N-methylbenzenesulfonamide]?
A: inhibition at 1 µM (MARK1): 7%; inhibition at 1 µM (PAK7): 0%; inhibition at 1 µM (CDK4): 0%; inhibition at 1 µM (BRSK2): 27%; inhibition at 1 µM (RET(M918T)): 0%; inhibition at 1 µM (AMPK-alpha2): 12%; inhibition at 1 µM [1]: 0%; inhibition at 1 µM (ADCK3): 50%; inhibition at 1 µM (MEK4): 37%; inhibition at 1 µM (MELK): 17%; inhibition at 1 µM [2]: 0%; inhibition at 1 µM (TSSK3): 0%; inhibition at 1 µM (EPHA6): 0%; inhibition at 1 µM (RET): 11%; inhibition at 1 µM (PCTK2): 0%; inhibition at 1 µM (CDK3): 1%; inhibition at 1 µM (AKT3): 0%; inhibition at 1 µM (SGK2): 0%; inhibition at 1 µM (PIK3CA(H1047Y)): 17%; inhibition at 1 µM (CLK4): 13%; inhibition at 1 µM (MYO3B): 0%; inhibition at 1 µM (LYN): 0%; inhibition at 1 µM (BUB1): 8%; inhibition at 1 µM (MAP3K15): 4%
